# Measurements as given in US20230270802A1, “ANTIVIRAL PHARMACEUTICAL COMPOSITION” (GSK CONSUMER HEALTHCARE SARL, priority 2020, published 2023).
# Columns and labels:
# Assay type in all cases: cell-based
# [1] = test system: MucilAir nasal human 3D epithelial model; assay: Trans-epithelial electronic resistance (TEER), Example 1; settings: all measured timepoints
# From the text: Trans-epithelial electronic resistance (TEER) is a dynamic parameter that reflects the state of epithelia and is typically between 200 to 600 Ω.cm^2. An increase of the TEER value reflects a blockage of the ion channel activities of the MucilAir cell culture. A notable decrease of the TEER values, but with the value still above 100 Ω.cm^2 can be observed in certain cases and indicates an activation of the ion channels. Disruption of cellular junction or holes in the epithelia result in TEER values below 100 Ω.cm^2. When an epithelium is damaged, a decrease of TEER would be associated with an increase of LDH release or a decrease of the cell viability. In this example, TEER was measured after addition of 200 µl of culture medium to the apical compartment of the inserts (i.e. during the washing step). TEER was measured with an EVOMX volt-ohm-meter (World Precision Instruments UK, Stevenage) for each condition. Resistance values (Q) were converted to TEER (Ω.cm^2) using the following formula: TEER (Ω.cm^2) = (resistance value (Ω) - 100 (Ω)) x 0.33 (cm^2), where 100 Q is the resistance of the membrane and 0.33 cm^2 is the total surface of the epithelium in one insert. The TEER measurement was conducted as follows: 200µl of culture medium was added on apical surface of each insert. The EVOMX was turned on. […] Then, the resistance (Q) was measured with the EVOMX in the Ohms measurement function.
# [2] = test system: MucilAir nasal human 3D epithelial model; assay: Cilia beating frequency (CBF), Example 1; settings: T96h, OC43 infected inserts; Mock 8.5 Hz
# Description: Cilia beating frequency (CBF) is a parameter that indicates if the nasal epithelia is healthy and carrying out its physiologic function of mucus transport. CBF was measured by a dedicated setup for this purpose. The system consists of three parts: a Sony XCD V60 camera connected to an Olympus BX51 microscope, a PCI card and a specific package of software. The cilia beating frequency is expressed in Hz. […] CBF was then calculated using relevant software. It should be pointed out that CBF values may be subject to fluctuations due to parameters such as temperature, mucus viscosity or liquid applied on the apical surface of the cell model and observed values should be compared to a control condition in each experiment.
# At T96h, the ciliary beating frequency (CBF) and the mucociliary clearance (MCC) of all inserts were measured. 200 µl of culture medium was added apically to all inserts and inserts were let sit for 20 minutes at 34° C. During this time, TEER of all inserts was measured. This apical washing liquid was then removed and was stored at -80° C. until the virus copy number was determined. The basal culture medium was removed and stored. 50 µl of the basal culture medium of all inserts was used for the LDH assay.
# [3] = test system: human coronavirus OC43; assay: OC43 viral genome copy number in MucilAir nasal epithelium, Example 1; settings: for Mean viral genome copy number, Log 10 ((Copies/ml) + 1): apical wash, 0.00 = below detection limit
Molecule,TEER [1],Cilia beating frequency (CBF) [2],"Mean viral genome copy number, Log 10 ((Copies/ml) + 1) ([3]; T4h)","Mean viral genome copy number, Log 10 ((Copies/ml) + 1) ([3]; T24h)","Mean viral genome copy number, Log 10 ((Copies/ml) + 1) ([3]; T48h)","Mean viral genome copy number, Log 10 ((Copies/ml) + 1) ([3]; T72h)","Mean viral genome copy number, Log 10 ((Copies/ml) + 1) ([3]; T96h)",Apical genome copy number in comparison to negative control ([3]; each timepoint T24h - T96h)
Polyethylene glycol tert-octylphenyl ether [positive controls for cytotoxicity],below 100 Ω.cm^2,–,–,–,–,–,–,–
"N#C[C@@]1(c2ccc3c(N)ncnn23)O[C@H](CO)[C@@H](O)[C@H]1O [Positive antiviral control, GS-441524]",–,about 15 Hz,0.00 Log 10 ((Copies/ml) + 1),0.00 Log 10 ((Copies/ml) + 1),0.00 Log 10 ((Copies/ml) + 1),5.21 Log 10 ((Copies/ml) + 1),4.69 Log 10 ((Copies/ml) + 1),statistically significantly reduced
